Patent US20240262808A1, “XANTHINE OXIDASE INHIBITOR” (JIANGSU ATOM BIOSCIENCE AND PHARMACEUTICAL CO., LTD., priority 2021, published 2024)

Experiments:
patients with gout = conditions: cited from earlier work; for Sudden cardiac death, share of group: patients with gout, per treatment group
[1] = tested on: rats with hyperuricemia induced by potassium oxonate; assay: Treatment of hyperuricemia in rats induced by potassium oxonate, serum uric acid; type: in vivo, SD rat; conditions: for Uric acid 1 h: 1 h after potassium oxonate; for Uric acid 3 h: 3 h after potassium oxonate; for Uric acid 5 h: 5 h after potassium oxonate; for Uric acid 0 h: before potassium oxonate injection; for Serum uric acid level compared with model group: 1 and 2 mg/kg groups, at 1, 3 and 5 h after model establishment
Experimental: Compounds 15, 24 and 38 were white powder, and compound 57 was light yellow powder, which was ground with 0.5% CMC-Na before use and prepared into suspension with corresponding concentrations (0.2 and 0.4 mg/mL) for gavage.
SD rat, SPF grade, male, weighing 180-220 g, purchased from Shanghai Slake Experimental Animal Co., Ltd., production license number: SCXK (Hu) 2017-0005, quality certificate number: 20170005050604.
72 SD rats, male, weighed about 200-230 g after one week of acclimatization. […] Drugs for each group were prepared into suspension with corresponding concentration, and the administration volume was 0.5 mL/100 g.
After purchased and fed for acclimatization, the rats in each group were fasted for 12 h, and the model was established by intraperitoneal injection with potassium oxonate at the dose of 300 mg/kg, and each of the test drug groups were administrated once by gavage after model establishment. Blood samples were collected from posterior orbital venous plexus before and 1, 3 and 5 h after potassium oxonate injection, centrifugated at 3500 rpm for 10 min, and 30 μL serum was taken to determine uric acid levels at each time point.
Then in two consecutive days, rat models were established with potassium oxonate by intraperitoneal injection at a dose of 300 mg/kg every day, and each test drug group was administrated once by gavage after model establishment. On the third day of administration, the rats were fasted for 12 h, and with the same test method on the first day, blood samples were collected from the posterior orbital venous plexus before and 1, 3 and 5 h after potassium oxonate injection, centrifuged at 3500 rpm for 10 min, and 30 μL serum was taken to determine the uric acid level at each time point.
The measurement data of each experiment were expressed as (mean)±s (standard deviation). ANOVA-Dunnett T test was used to investigate the significance between groups, and P<0.05 was used as a significant index, P<0.01 was used as a very significant index.

subjects = conditions: allopurinol used at maximum doses; cited from earlier work
[2] = 1-day administration, 1 mg/kg gavage
[3] = 1-day administration, 2 mg/kg gavage
[4] = 3-day administration, 1 mg/kg gavage
[5] = 3-day administration, 2 mg/kg gavage

## Cc1nc(-c2ccc(OCC(C)C)c(C#N)c2)sc1C(=O)O [Febuxostat, reference compound]
Patients with gout; febuxostat vs allopurinol group, 95% CI 1.01-1.47
  All-cause mortality, HR: 1.22
Patients with gout; febuxostat vs allopurinol group, 95% CI 1.03-1.73
  Cardiovascular mortality, HR: 1.34
Patients with gout; febuxostat vs allopurinol group, average of 32 months of treatment, 95% CI 0.87-1.23
  Overall risk of adverse cardiovascular events, HR: 1.03
Patients with gout
  Sudden cardiac death, share of group: 2.7%
[1]; [2]
  Uric acid 1 h: 76.4 ± 11.4 µmol/L
  Uric acid 3 h: 91.3 ± 13.3 µmol/L
  Uric acid 5 h: 65.7 ± 12.4 µmol/L
  Uric acid 0 h: 81.3 ± 7.8 µmol/L
[1]; [3]
  Uric acid 1 h: 59.7 ± 6.6 µmol/L
  Uric acid 3 h: 60.7 ± 15.0 µmol/L
  Uric acid 0 h: 67.2 ± 1.9 µmol/L
[1]; 1-day administration
  Serum uric acid level compared with model group: significantly decreased
[1]; [4]
  Uric acid 1 h: 53.0 ± 12.0 µmol/L
  Uric acid 3 h: 71.4 ± 23.5 µmol/L
  Uric acid 5 h: 61.1 ± 8.1 µmol/L
  Uric acid 0 h: 66.0 ± 11.3 µmol/L
[1]; [5]
  Uric acid 1 h: 47.5 ± 7.9 µmol/L
  Uric acid 3 h: 51.8 ± 6.7 µmol/L
  Uric acid 0 h: 65.5 ± 8.8 µmol/L
[1]; 3-day administration
  Serum uric acid level compared with model group: significantly decreased

## Oc1ncnc2[nH]ncc12 [allopurinol, Allopurinol]
Patients with gout
  Sudden cardiac death, share of group: 1.8%
subjects
  Subjects reaching the treatment endpoint: less than 50%
